Results on eight compounds are retold here after PMC7111485 (Bioorganic & Medicinal Chemistry, 2016).

For data set [1], the target named is Bovine spleen cathepsin B (Bos taurus, UniProt P07688). It is filed as biochemical.
The next data set concerns HeLa cells. To be noted: for cell death ratio: human.

In the case of `O=C(/C=C/c1ccccc1)N[C@H](COC(=O)c1ccccc1)C(=O)NC1CCCCC1` (single isomer, unassigned) [ent-3], in data set [1], the “Inhibition (%)” value is reported as “no inhibition”. The “cytotoxicity (in words)” value in the data set with HeLa cells is reported as “no cytotoxicity”.

For the compound `COc1ccccc1/C=C/C(=O)N[C@@H](COC(=O)c1ccccc1)C(=O)NC1CCCCC1` [7f, (S)-N-(E)-2′-Methoxy-3-phenylprop-2-enoicserine(benzoyl)cyclohexylamide], in data set [1], the “inhibitory activity relative to 3 (times)” value is on record as “about 10 times” and the “inhibitory mechanism (Lineweaver–Burk plot)” value was “competitive inhibition”.

Turning to `COc1cc(/C=C/C(=O)N[C@@H](COC(=O)c2ccccc2)C(=O)NC2CCCCC2)cc(OC)c1` [7h, (S)-N-(E)-3′,5′-Dimethoxy-3-phenylprop-2-enoicserine(benzoyl)cyclohexylamide], the cell death ratio result with HeLa cells is “less than 20%”.

Regarding `COc1cccc(/C=C/C(=O)N[C@@H](COC(=O)c2ccccc2)C(=O)NC2CCCCC2)c1` [7i, (S)-N-(E)-3′-Methoxy-3-phenylprop-2-enoicserine(benzoyl)cyclohexylamide], the cell death ratio result with HeLa cells is “less than 20%”.

Turning to `O=C(/C=C/c1ccc(OC(=O)c2ccccc2)cc1)N[C@@H](COC(=O)c1ccccc1)C(=O)NC1CCCCC1` [7j, (S)-N-(E)-4′-Benzoyloxy-3-phenylprop-2-enoicserine(benzoyl)cyclohexylamine], the cell death ratio result with HeLa cells was “less than 20%”.

Consider `COc1cc(/C=C/C(=O)N[C@@H](COC(=O)c2ccccc2)C(=O)NC2CCCCC2)cc(OC)c1OC` [7k, (S)-N-(E)-3′,4′,5′-Trimethoxy-3-phenylprop-2-enoicserine(benzoyl)cyclohexylamide], for which the cell death ratio result in the data set on HeLa cells was “less than 20%”.

Take `O=C(/C=C/c1ccccc1)N[C@@H](COC(=O)c1ccccc1)C(=O)NC1CCCCC1` [compound 3, (S)-N-Cinnamoyl serine(benzoyl)cyclohexylamide]: the cell death ratio entry in the data set on HeLa cells is “less than 20%”.

In the case of `COc1cc(/C=C/C(=O)N[C@H](COC(=O)c2ccccc2)C(=O)NC2CCCCC2)cc(OC)c1OC` [ent-7k], the “cytotoxicity (in words)” value in the data set with HeLa cells is recorded as “no cytotoxicity”.
